Marks after values point to notes of the source that are not given here. Where no end group is shown, it is not given here.
Columns and labels:
[1] = MTS cell viability assay, M10; type: cell-based; conditions: human, M10 normal human mammary epithelial cells, mean±SD, read-out: Cellular toxicity (cell viability), MTS assay
Method: (§1) Cell-lines used in this study were purchased from the Bioresource Collection and Research Center (BCRC) in and the cells were cultured by the standard cell culture procedures and conditions provided by the BCRC. MB231 (BCRC 60425), MB453 (BCRC 60429), and HDF cells were cultured as previously described by Ting et al. MCF7 […] cells were maintained in α-MEM medium (ThermoFisher Scientific) supplemented with 2 mM L-glutamine, 10% FBS, 0.1 mM non-essential amino acids, 1 mM sodium pyruvate, and antibiotics (100 U mL^−1 penicillin G and […] streptomycin). M10 (BCRC 60197) cells were maintained in α-MEM medium (ThermoFisher Scientific) supplemented with 10% FBS and antibiotics. With the exception of MB231 and MB453, all cells were cultured at 37° C. with 5% CO2. For the cell viability and transfection assay, 1×10^4 cells [5×10^3 M10 cells were seeded and cultured for 48 h to allow the cells sufficient time for attachment] were seeded into the wells of a 96-well plate and cultured overnight. For the transfection assays, cells were transfected with 0.1-0.4 μg FOSB/FOSAB expression plasmid (Origene Technology Inc.) and cell viability was determined after 72 h. The transfection efficiencies (number of cells expressing eGFP/all cells) of the MB231 transfection assays were determined by observing ten randomly selected fields (from three independent transfections) of control GFP plasmid transfections under an inverted microscope (Olympus, IX71) coupled to a digital camera (Olympus DP80), using an […] (LCPlanFI 20×/0.40 Ph1). CellSens standard software (Olympus) was used for image acquisition. During the drug treatment assay, inhibitors (PD98059, BAPTA-AM, and AlP II) were added 30 min prior to TP4, and cell viability was determined at indicated time-points. Transfection was performed using LipofectAMINE™ 3000 (ThermoFisher Scientific), according to the manufacturer's recommendations. Knock-down cells were generated by transducing MB231 cells with pre-synthesized FOSB (or control) shRNA lentiviral particles (Santa Cruz Biotechnology), and selecting puromycin-resistant cells in accordance with the manufacturer's standard protocol. MB231 or M10 cells stably expressing eGFP or mOrange2 were generated through transfection with peGFP-puromycin or pmOrange2-C1 plasmid, followed by puromycin (5 μg mL^−1) or G418 (500 μg mL^−1) selection as described above.
(§2) Cell viability was quantitatively analyzed using the CellTiter-Glo® Luminescent Cell Viability Assay kit (ATP assay) and CellTiter 96® AQueous Non-Radioactive Cell Proliferation Assay kit (MTS assay) (Promega) in accordance with the manufacturer's protocol. For MTS assay, 1×10^4 cells were seeded into the wells of a 96-well plate and cultured overnight [5×10^3 M10 cells were seeded and cultured for 48 h to enable sufficient well attachment]. Cells were subsequently treated with different doses of TP4 (2.5-20 μg mL^−1) and harvested at the indicated time-points (3-24 h). Reaction mixtures (20 μL: MTS+PMS, using a ratio 20:1) were directly added to the cells, and the plates were incubated for 3 h at 37° C. Absorbance at 490 nm is directly proportional to the number of living cells in culture and was measured using a photometer (SpectraMax® i3, Molecular Devices). ATP assay was performed as previously described by Ting et al. Lactate dehydrogenase (LDH) assays were performed by quantitatively measuring cell lysis with a Cytotoxicity Detection Kit^PLUS (LDH) (Roche) in accordance with the manufacturer's protocol. The LDH standard was purchased from Cayman Chemical. Briefly, 1×10^4 cells were seeded into the wells of a 96-well plate and cultured overnight. Culture media were replaced with fresh medium containing 1% FBS and cells were subsequently treated with different doses of TP4 (2.5-20 μg mL^−1). Supernatants were harvested at 3 h. […]

[2] = test system: MB231 (MDA-MB231) cells; experiment: MTS cell viability assay, MB231; type: cell-based, human; conditions: mean±SD
Method: as §1, §2

FIHHIIGGLFSAGKAIHRLIRRRRR [TP4, tilapia piscidin 4]
viability at 3 h, 2.5 μg/mL ([1]; M10, TP4 2.5 μg/mL, 3 h): 101 ± 4.23%
viability at 6 h, 2.5 μg/mL ([1]; M10, TP4 2.5 μg/mL, 6 h): 94.8 ± 7.52%
viability at 12 h, 2.5 μg/mL ([1]; M10, TP4 2.5 μg/mL, 12 h): 96 ± 5.66%
viability at 24 h, 2.5 μg/mL ([1]; M10, TP4 2.5 μg/mL, 24 h): 94 ± 3.81%
viability at 3 h, 5 μg/mL ([1]; M10, TP4 5.0 μg/mL, 3 h): 97.1 ± 4.9%
viability at 6 h, 5 μg/mL ([1]; M10, TP4 5.0 μg/mL, 6 h): 92 ± 5.12%
viability at 12 h, 5 μg/mL ([1]; M10, TP4 5.0 μg/mL, 12 h): 92.6 ± 4.99%
viability at 24 h, 5 μg/mL ([1]; M10, TP4 5.0 μg/mL, 24 h): 91.2 ± 3.99%
viability at 3 h, 10 μg/mL ([1]; M10, TP4 10.0 μg/mL, 3 h): 90.8 ± 4.76%
viability at 6 h, 10 μg/mL ([1]; M10, TP4 10.0 μg/mL, 6 h): 84 ± 7.47%
viability at 12 h, 10 μg/mL ([1]; M10, TP4 10.0 μg/mL, 12 h): 83.8 ± 4.27%
viability at 24 h, 10 μg/mL ([1]; M10, TP4 10.0 μg/mL, 24 h): 80.7 ± 5.72%
viability at 3 h, 15 μg/mL ([1]; M10, TP4 15.0 μg/mL, 3 h): 84.8 ± 5.83%
viability at 6 h, 15 μg/mL ([1]; M10, TP4 15.0 μg/mL, 6 h): 78.9 ± 5.57%
viability at 12 h, 15 μg/mL ([1]; M10, TP4 15.0 μg/mL, 12 h): 65.5 ± 6.68%
viability at 24 h, 15 μg/mL ([1]; M10, TP4 15.0 μg/mL, 24 h): 58.4 ± 6.8%
viability at 3 h, 20 μg/mL ([1]; M10, TP4 20.0 μg/mL, 3 h): 67.9 ± 5.16%
viability at 6 h, 20 μg/mL ([1]; M10, TP4 20.0 μg/mL, 6 h): 60.3 ± 4.97%
viability at 12 h, 20 μg/mL ([1]; M10, TP4 20.0 μg/mL, 12 h): 47.2 ± 8.42%
viability at 24 h, 20 μg/mL ([1]; M10, TP4 20.0 μg/mL, 24 h): 44 ± 4.5%
Cellular toxicity (cell viability), MTS assay ([2]; MB231, TP4 2.5 μg/mL, 3 h): 95.34 ± 5.56^a
Cellular toxicity (cell viability), MTS assay ([2]; MB231, TP4 2.5 μg/mL, 6 h): 95.93 ± 8.86^a
Cellular toxicity (cell viability), MTS assay ([2]; MB231, TP4 2.5 μg/mL, 12 h): 87.60 ± 12.28^c
Cellular toxicity (cell viability), MTS assay ([2]; MB231, TP4 2.5 μg/mL, 24 h): 87.01 ± 9.69^c
Cellular toxicity (cell viability), MTS assay ([2]; MB231, TP4 5.0 μg/mL, 3 h): 90.55 ± 10.57^a
Cellular toxicity (cell viability), MTS assay ([2]; MB231, TP4 5.0 μg/mL, 6 h): 82.30 ± 6.40^d
Cellular toxicity (cell viability), MTS assay ([2]; MB231, TP4 5.0 μg/mL, 12 h): 79.00 ± 9.48^d
Cellular toxicity (cell viability), MTS assay ([2]; MB231, TP4 5.0 μg/mL, 24 h): 71.69 ± 6.84^d
Cellular toxicity (cell viability), MTS assay ([2]; MB231, TP4 10.0 μg/mL, 3 h): 75.01 ± 11.29^d
Cellular toxicity (cell viability), MTS assay ([2]; MB231, TP4 10.0 μg/mL, 6 h): 65.28 ± 6.61^d
Cellular toxicity (cell viability), MTS assay ([2]; MB231, TP4 10.0 μg/mL, 12 h): 61.63 ± 11.38^d
Cellular toxicity (cell viability), MTS assay ([2]; MB231, TP4 10.0 μg/mL, 24 h): 57.98 ± 6.62^d
Cellular toxicity (cell viability), MTS assay ([2]; MB231, TP4 15.0 μg/mL, 3 h): 52.48 ± 11.16^d
Cellular toxicity (cell viability), MTS assay ([2]; MB231, TP4 15.0 μg/mL, 6 h): 42.59 ± 10.14^d
Cellular toxicity (cell viability), MTS assay ([2]; MB231, TP4 15.0 μg/mL, 12 h): 38.31 ± 7.26^d
Cellular toxicity (cell viability), MTS assay ([2]; MB231, TP4 15.0 μg/mL, 24 h): 29.78 ± 4.79^d
Cellular toxicity (cell viability), MTS assay ([2]; MB231, TP4 20.0 μg/mL, 3 h): 30.57 ± 4.64^d
Cellular toxicity (cell viability), MTS assay ([2]; MB231, TP4 20.0 μg/mL, 6 h): 26.65 ± 7.16^d
Cellular toxicity (cell viability), MTS assay ([2]; MB231, TP4 20.0 μg/mL, 12 h): 19.31 ± 5.73^d
Cellular toxicity (cell viability), MTS assay ([2]; MB231, TP4 20.0 μg/mL, 24 h): 16.19 ± 4.15^d

— patent US10232013B2, “Use of an antimicrobial peptide TP4 in treating a cancer” (Academia Sinica, priority 2016, dated 2019)
